{"source": "patent US7220730B2", "about": "“Cancer specific radiolabeled conjugates regulated by the cell cycle for the treatment and diagnosis of cancer” (Board of Regents of the University of Nebraska, priority 2003, dated 2007)", "key": {"[1]": {"test": "Hydrophobicity / aqueous solubility of the conjugates (descriptive)", "assay_type": "physicochemical"}, "OVCAR-3 cells [2]": {"system": "OVCAR-3 cells", "test": "Binding of ^125IUdR-DHT to OVCAR-3 cells in vitro (Scatchard plot, with/without excess cold DHT)", "procedure": "To generate a Scatchard plot for the binding of ^125IUdR-DHT to OVCAR-3 cells, OVCAR-3 cells were thawed from a stock or freshly harvested by a lavage of the peritoneal cavity of athymic mice bearing intraperitoneal ascites OVCAR-3 tumors. The cells were twice washed with full media (RPMI 1640 medium with 2 mM L-glutamine adjusted to contain 1.5 g/L sodium bicarbonate, 4.5 g/L glucose, 10 mM HEPES, and 1.0 mM sodium pyruvate and supplemented with 0.01 mg/ml bovine insulin, 80%; fetal bovine serum, 20%). The cells were spun at 450 rpm for 10 minutes to collect a cell pellet and were then resuspended in full media to achieve approximately 5×10^6 cells/mL. The cells were counted and their viability was determined by Trypan Blue staining. “Cold” dihydrotestosterone (DHT) was dissolved in 95% ethanol to create a stock solution of 5 μg/mL. Similarly, 95% ethanol was added to ^125IUdR-DHT to produce 250,000 cpm/100 μL.\nThe tubes were capped and gently vortexed. The “total applied” counts were then determined in a gamma counter. […] A known volume of the supernatant from the centrifugation was transfered to new plastic tubes and counted in a gamma counter to determine the “free” counts. The cell pellet with the remainder of the supernatant was then counted in the gamma counter. “Bound” counts were then determined by subtracting counts associated with the supernatant from the remaining counts."}, "OVCAR-3 cells [3]": {"system": "OVCAR-3 cells", "test": "Stability of ^125IUdR-DHT in growth medium in the presence or absence of OVCAR-3 cells (TLC)", "assay_type": "in vitro ADME", "procedure": "OVCAR-3 cells in full growth medium (RPMI 1640 medium with 2 mM L-glutamine adjusted to contain 1.5 g/L sodium bicarbonate, 4.5 g/L glucose, 10 mM HEPES, and 1.0 mM sodium pyruvate and supplemented with 0.01 mg/ml bovine insulin, 80%; fetal bovine serum, 20%) at 1×10^6 cells per flask were plated onto three Petri dishes and allowed to attach for 24 hours. As a control, one dish without cells was subjected to the same treatments. After 24 hours, the cells were trypsinized from one dish to determine cell number and viability. The media was then aspirated from the remaining dishes, including the control, and replaced with 1 mL of fresh media. 0.1 mCi of ^125IUdR-DHT in 0.10 mL of ethanol was added to all of the dishes. The dishes were incubated at 37° C. At 0, 5, 15, 30, 60, 120, 180, and 240 minutes, 10 μL of media was removed from each of the dishes of which 2 μL was added to a silica gel TLC plate. Additionally, 2 μL was added to glass gamma counter tubes as standards. The TLC plates were run with a 3:1 mixture of ethyl acetate and hexane (v/v). When the solvent front approached the end of the plate, the plate was removed from the solvent, dried, and cut into strips. The standards and the strips were then counted. The percent recovered ^125IUdR-DHT was calculated as a ratio of the intact ^125IUdR-DHT at a given timepoint divided by the intact ^125IUdR-DHT at the 0 minute timepoint (see FIG. 2A). Similar calculations were used to determine the kinetics of the appearance of ^125IUdR in the medium, which was determined to occur at a rate of 8.5%/hour (FIG. 2B). This rate is in comparison to the disappearance of ^125IUdR-DHT from the media at a rate of 16%/hour. […] The inclusion of a negatively-charged monophosphate assists in the retention of these compounds in the cell.\nThis allows at least a partial retention of the negatively charged succinate inside the cell where the next hydrolytic step frees ^125IUdR to be taken up by DNA."}, "[4]": {"test": "Biodistribution in athymic mice bearing AR-expressing OVCAR-3 tumors", "assay_type": "in vivo", "source_text": "(§1) With regard to ^125IUdR-3′-DHT, the biodistribution of the reagent (0.001–0.010 mCi/mouse; […]) in athymic mice bearing AR-expressing OVCAR-3 tumors is seen in Table 3. Additionally, the efficacy of the reagent against the intraperitoneal OVCAR-3 tumors after 6 fractionated doses (0.1 mCi/dose/mouse; […]) is seen in Table 4."}, "[5]": {"system": "intraperitoneal OVCAR-3 tumors", "test": "Efficacy against intraperitoneal OVCAR-3 tumors after 6 fractionated doses", "assay_type": "in vivo, athymic mice", "conditions": "0.1 mCi/dose/mouse", "source_text": "as §1"}, "[6]": {"target": "T1, sex hormone binding globulin (SHBG) (Homo sapiens, UniProt P04278)", "T1 sequence (P04278 30-402)": "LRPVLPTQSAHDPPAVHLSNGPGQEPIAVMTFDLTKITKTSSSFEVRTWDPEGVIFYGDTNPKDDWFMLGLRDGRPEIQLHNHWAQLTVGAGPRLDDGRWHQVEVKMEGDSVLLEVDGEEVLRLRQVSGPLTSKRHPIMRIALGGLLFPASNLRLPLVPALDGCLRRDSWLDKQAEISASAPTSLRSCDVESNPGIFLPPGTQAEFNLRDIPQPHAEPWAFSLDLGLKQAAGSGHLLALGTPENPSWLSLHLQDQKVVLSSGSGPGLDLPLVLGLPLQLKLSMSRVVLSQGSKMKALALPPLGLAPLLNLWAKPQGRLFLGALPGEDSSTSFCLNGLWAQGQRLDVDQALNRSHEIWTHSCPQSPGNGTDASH", "test": "Binding of 5′-MP-^125IUdR-3′-DHT to sex hormone binding globulin (charcoal-dextran, size-exclusion HPLC)", "conditions": "FIG. 3", "procedure": "The tubes were then vortexed for about 30 seconds and incubated for 10 minutes in a water bath at 37° C. The samples were then incubated at 0–4° C. for 3 hours. 0.1 mL aliquots were removed from the samples and counted in a gamma counter. To each tube, 0.4 mL of ice-cold charcoal-dextran solution was added and the tubes were incubated on ice for 15 minutes. The samples were then centrifuged at 4° C. for 20 minutes at 1,000 rpm. 0.5 ml aliquots were taken for gamma-counting and the residue was also counted. Selected samples were analyzed by size-exclusion HPLC (tandem TSK2000 and TSK3000 size exclusion columns (TosoHaas; Montgomeryville, Pa.) with a guard column using PBS, pH7.2 as the eluant)."}, "[7]": {"conditions": "OVCAR-3 cells, full growth medium, 37° C."}}}
{"smiles": "CC12CCC(=O)CC1CCC1C2CCC2(C)C(OP(=O)(OCC3OC(n4cc([125I])c(=O)[nH]c4=O)CC3O)OC3CCC4C5CCC6CC(=O)CCC6(C)C5CCC34C)CCC12", "note": "(stereo not shown) [Conjugate 5, 5′-[^125I]iodo-2′-deoxy-5′-monphosphate-O-(bis-dihydrotestosterone)]", "values": [{"measurement": "hydrophilicity / hydrophobicity relative to the other conjugates", "setting": "[1]", "result": "most hydrophobic"}]}
{"smiles": "CC12CCC(=O)CC1CCC1C2CCC2(C)C(OC(=O)CCC(=O)OC3CC(n4cc([125I])c(=O)[nH]c4=O)OC3CO)CCC12", "note": "(stereo not shown) [^125IUdR-DHT, ^125IUdR-3′-succinyl-DHT]", "values": [{"measurement": "binding to OVCAR-3 cells (Scatchard)", "setting": "OVCAR-3 cells [2]; 5 × 10^6 cells, 0–4° C., 14–16 hours", "result": "single type of binding sites with a high affinity"}, {"measurement": "competition by excess DHT for binding", "setting": "OVCAR-3 cells [2]; excess “cold” DHT", "result": "due to the DHT portion of the drug"}, {"measurement": "rate of appearance of ^125IUdR in the medium", "setting": "OVCAR-3 cells [3]; [7]", "result": 8.5, "unit": "%/hour"}, {"measurement": "rate of disappearance of ^125IUdR-DHT from the media", "setting": "OVCAR-3 cells [3]; [7]", "result": 16, "unit": "%/hour"}, {"measurement": "emergence of “free” ^125IUdR in the growth medium", "setting": "OVCAR-3 cells [3]; presence or absence of OVCAR-3 cells", "result": "requires interaction of the drugs with specific cells"}, {"measurement": "Percent injected dose per gram tissue", "setting": "[4]; Blood, 1.5 h, average of n = 10", "result": "29.61 Percent injected dose per gram tissue"}, {"measurement": "Percent injected dose per gram tissue", "setting": "[4]; Blood, 24 h, average of n = 10", "result": "0.25 Percent injected dose per gram tissue"}, {"measurement": "Percent injected dose per gram tissue", "setting": "[4]; Blood, 48 h, average of n = 10", "result": "0.30 Percent injected dose per gram tissue"}, {"measurement": "Percent injected dose per gram tissue", "setting": "[4]; Blood, 72 h, average of n = 10", "result": "0.17 Percent injected dose per gram tissue"}, {"measurement": "Percent injected dose per gram tissue", "setting": "[4]; Brain, 1.5 h", "result": "1.91 Percent injected dose per gram tissue"}, {"measurement": "Percent injected dose per gram tissue", "setting": "[4]; Brain, 24 h", "result": "0.03 Percent injected dose per gram tissue"}, {"measurement": "Percent injected dose per gram tissue", "setting": "[4]; Brain, 48 h", "result": "0.05 Percent injected dose per gram tissue"}, {"measurement": "Percent injected dose per gram tissue", "setting": "[4]; Brain, 72 h", "result": "0.04 Percent injected dose per gram tissue"}, {"measurement": "Percent injected dose per gram tissue", "setting": "[4]; Kidney, 1.5 h", "result": "17.67 Percent injected dose per gram tissue"}, {"measurement": "Percent injected dose per gram tissue", "setting": "[4]; Kidney, 24 h", "result": "0.20 Percent injected dose per gram tissue"}, {"measurement": "Percent injected dose per gram tissue", "setting": "[4]; Kidney, 48 h", "result": "0.18 Percent injected dose per gram tissue"}, {"measurement": "Percent injected dose per gram tissue", "setting": "[4]; Kidney, 72 h", "result": "0.22 Percent injected dose per gram tissue"}, {"measurement": "Percent injected dose per gram tissue", "setting": "[4]; Liver, 1.5 h", "result": "11.07 Percent injected dose per gram tissue"}, {"measurement": "Percent injected dose per gram tissue", "setting": "[4]; Liver, 24 h", "result": "0.24 Percent injected dose per gram tissue"}, {"measurement": "Percent injected dose per gram tissue", "setting": "[4]; Liver, 48 h", "result": "0.32 Percent injected dose per gram tissue"}, {"measurement": "Percent injected dose per gram tissue", "setting": "[4]; Liver, 72 h", "result": "0.33 Percent injected dose per gram tissue"}, {"measurement": "Percent injected dose per gram tissue", "setting": "[4]; OVCAR-3 tumor (IP), 1.5 h", "result": "20.70 Percent injected dose per gram tissue"}, {"measurement": "Percent injected dose per gram tissue", "setting": "[4]; OVCAR-3 tumor (IP), 24 h", "result": "5.66 Percent injected dose per gram tissue"}, {"measurement": "Percent injected dose per gram tissue", "setting": "[4]; OVCAR-3 tumor (IP), 48 h", "result": "5.41 Percent injected dose per gram tissue"}, {"measurement": "Percent injected dose per gram tissue", "setting": "[4]; OVCAR-3 tumor (IP), 72 h", "result": "3.54 Percent injected dose per gram tissue"}, {"measurement": "Percent injected dose per gram tissue", "setting": "[4]; Spleen, 1.5 h", "result": "15.60 Percent injected dose per gram tissue"}, {"measurement": "Percent injected dose per gram tissue", "setting": "[4]; Spleen, 24 h", "result": "0.59 Percent injected dose per gram tissue"}, {"measurement": "Percent injected dose per gram tissue", "setting": "[4]; Spleen, 48 h", "result": "0.44 Percent injected dose per gram tissue"}, {"measurement": "Percent injected dose per gram tissue", "setting": "[4]; Spleen, 72 h", "result": "0.59 Percent injected dose per gram tissue"}, {"measurement": "Percent injected dose per gram tissue", "setting": "[4]; Uterus, 1.5 h", "result": "11.43 Percent injected dose per gram tissue"}, {"measurement": "Percent injected dose per gram tissue", "setting": "[4]; Uterus, 24 h", "result": "0.54 Percent injected dose per gram tissue"}, {"measurement": "Percent injected dose per gram tissue", "setting": "[4]; Uterus, 48 h", "result": "0.66 Percent injected dose per gram tissue"}, {"measurement": "Percent injected dose per gram tissue", "setting": "[4]; Uterus, 72 h", "result": "0.97 Percent injected dose per gram tissue"}, {"measurement": "Percent injected dose per gram tissue", "setting": "[4]; solid OVCAR-3 (approximately 2 mice per group), 1.5 h", "result": "12.94 Percent injected dose per gram tissue"}, {"measurement": "Percent injected dose per gram tissue", "setting": "[4]; solid OVCAR-3 (approximately 2 mice per group), 24 h", "result": "0.67 Percent injected dose per gram tissue"}, {"measurement": "Percent injected dose per gram tissue", "setting": "[4]; solid OVCAR-3 (approximately 2 mice per group), 48 h", "result": "0.28 Percent injected dose per gram tissue"}, {"measurement": "Percent injected dose per gram tissue", "setting": "[4]; solid OVCAR-3 (approximately 2 mice per group), 72 h", "result": "0.24 Percent injected dose per gram tissue"}, {"measurement": "median tumor size", "setting": "[5]", "result": 0.244, "unit": "g"}, {"measurement": "range (tumor size)", "setting": "[5]", "result": "0.012 to 0.781", "unit": "g"}, {"measurement": "mean tumor burden", "setting": "[5]; average (n = 10) and standard deviation", "result": "0.304 ± 0.320", "unit": "g"}]}
{"smiles": "CC12CCC(=O)CC1CCC1C2CCC2(C)C(OC(=O)CCC(=O)OC3CC(n4cc([125I])c(=O)[nH]c4=O)OC3COP(=O)(O)O)CCC12", "note": "(stereo not shown) [5′-MP-^125IUdR-3′-DHT, 5′-monophosphate-^125IUdR-3′-succinyl-DHT]", "values": [{"measurement": "binding to SHBG", "setting": "[6]", "result": "specifically bound"}, {"measurement": "competition of SHBG binding by “cold” DHT", "setting": "[6]", "result": "competed away"}]}
